From patent US20240252472A1, “COMBINATIONS FOR TREATING CANCER” (Purdue Pharma L.P., priority 2023, published 2024)

Legend:
CD155 = assay: Surface expression of NK cell activating ligands by flow cytometry; format: cell-based, human; details: 48 hours, DMSO = 100
Procedure: (§1) For surface staining, cells were incubated with the appropriate antibodies and 7AAD (Immunostep) for 15 min in the dark. Data were acquired using a FACSCalibur cytometer (BD Biosciences) and analyzed using Infinicyt™ software (Cytognos). Specifically, the expression of CD38 or ligands for NK cell activating receptors (MICA, MICB, ULBP1-3, PVR and CD112) in MM cell lines was determined on the viable cell population (7AAD-). In primary myeloma cells, the expression of CD38 was analyzed over the viable myeloma population using the panel CD138-FITC/CD56-PE/7AAD/CD38-APC, whereas MICA/B-AF488/CD56-PE/7AAD/CD38-APC panel was used to determine MICA/B expression. Normalized median fluorescence intensity (MFI) was calculated by dividing median fluorescence obtained with the specific antibody by median fluorescence of the corresponding isotype control. MFI for each treatment was expressed as a percentage relative to the control (100%, cells cultured in media with DMSO).
(§2) MM cells (JJN3, MM1.S, RPMI-8226, MOLP-8) were treated with EDO-S101 (1 and 2.5 μm) for 48 hours in accordance with the methods outlined above. After incubation, expression of several ligands for NK cell activating receptors: MICA, MICB, ULBP1, ULPB2, ULPB3, CD155 (PVR) and CD112 (Nectin-2) were measured using flow cytometry. Flow cytometry was then performed in accordance with the methods outlined above to calculate.

MICA = assay: as above; format: cell-based, human; details: 48 hours, DMSO = 100
Procedure: as §1, §2

MICB = assay: as above; format: cell-based, human; details: 48 hours, DMSO = 100
Procedure: as §1, §2

ULBP2 = assay: as above; format: cell-based, human; details: 48 hours, DMSO = 100
Procedure: as §1, §2

[1] = test system: MM cell lines (MM.1S, RPMI-8226, MOLP-8); assay: Daratumumab-mediated ADCC on pre-treated MM cells; format: cell-based, human; details: pre-treatment 2.5 μM 48 hours, NK cells 1:1 + daratumumab 1 μg/mL, 4 hours, vs DMSO-pretreated
Procedure: (§3) ADCC, CDC and apoptosis via cross-linking To assess the effect of tinostamustine pre-treatment on cytotoxic mechanisms mediated by daratumumab, MM cell lines were first incubated in presence of tinostamustine (2.5 μM) or DMSO for 48 hours. Cells were then washed to remove tinostamustine or DMSO from the culture medium, and the corresponding cytotoxic assay (ADCC, CDC or apoptosis via cross-linking) was performed.
(§4) For the evaluation of ADCC, tinostamustine or DMSO pre-treated cells were cocultured with NK cells obtained from healthy donors in the presence of daratumumab (1 μg/ml) or the corresponding isotype control for 4 hours (ratio 1:1). Briefly, peripheral blood mononuclear cells (PBMCs) were isolated from healthy donor buffy coats by Lymphoprep density gradient centrifugation. […] In all three assays, the cytotoxic effect on MM cells was evaluated by flow cytometry with Annexin V/7AAD staining after treatment with daratumumab. […]
MM cells (MM1.S, RPMI-8226, MOLP-8 cells pre-treated with 0 or 2.5 μM EDO-S101 in accordance with the methods outlined above) were co-cultured with NK-cells (ratio 1:1), in the presence of daratumumab (1 μg/mL) or the corresponding isotype control, for 4 hours at 37° C. […] ADCC was then evaluated using flow cytometry in accordance with the methods outlined above, using the following panel: CD38me-FITC/AnnexinV-PE/7AAD/CD45-APC.

MOLP-8 cells = assay: Daratumumab-mediated complement-dependent cytotoxicity (CDC) on pre-treated MM cells; format: cell-based; details: MOLP-8 pre-treated 2.5 μM 48 hours; daratumumab 0.1 or 1 μg/mL, 10% human serum, 4 hours
Procedure: as §3, §4
MM cells (MOLP-8 pre-treated with 0 or 2.5 μM EDO-S101 for 48 hours in accordance with the methods outlined above) were incubated with 0.1 μg/mL daratumumab, 1 μg/ml daratumumab, or the corresponding isotype control, for 30 minutes at 37° C. […] The percentage of dead cells was then evaluated by flow cytometry in accordance with the methods outlined above, using AnnexinV/7AAD staining.

Cn1c(CCCCCCC(=O)NO)nc2cc(N(CCCl)CCCl)ccc21 [EDO-S101, 7-(5-(bis(2-chloroethyl)amino)-1-methyl-1H-benzo[d]imidazol-2-yl)-N-hydroxyheptanamide]
Normalized MFI CD155 (CD155; JJN3, EDO-S101 1 μM): 161.4 ± 14.3% | Normalized MFI CD155 (CD155; JJN3, EDO-S101 2.5 μM): 156.8 ± 24.7% | Normalized MFI CD155 (CD155; MM1.S, EDO-S101 1 μM): 113.3 ± 3.9% | Normalized MFI CD155 (CD155; MM1.S, EDO-S101 2.5 μM): 111.5 ± 15.3% | Normalized MFI CD155 (CD155; RPMI-8226, EDO-S101 1 μM): 123.9 ± 6.1% | Normalized MFI CD155 (CD155; RPMI-8226, EDO-S101 2.5 μM): 168.2 ± 24.8% | Normalized MFI MICA (MICA; JJN3, EDO-S101 1 μM): 162.9 ± 11.8% | Normalized MFI MICA (MICA; JJN3, EDO-S101 2.5 μM): 168.8 ± 10.3% | Normalized MFI MICA (MICA; MM1.S, EDO-S101 1 μM): 131.9 ± 37.6% | Normalized MFI MICA (MICA; MM1.S, EDO-S101 2.5 μM): 128 ± 38.2% | Normalized MFI MICA (MICA; MOLP-8, EDO-S101 1 μM): 112.9 ± 5.7% | Normalized MFI MICA (MICA; MOLP-8, EDO-S101 2.5 μM): 131.7 ± 13.4% | Normalized MFI MICA (MICA; RPMI-8226, EDO-S101 1 μM): 121.3 ± 5.9% | Normalized MFI MICA (MICA; RPMI-8226, EDO-S101 2.5 μM): 153.6 ± 16.1% | Normalized MFI MICB (MICB; JJN3, EDO-S101 1 μM): 137.6 ± 14% | Normalized MFI MICB (MICB; JJN3, EDO-S101 2.5 μM): 144.9 ± 28% | Normalized MFI MICB (MICB; MM1.S, EDO-S101 1 μM): 113.8 ± 7.6% | Normalized MFI MICB (MICB; MM1.S, EDO-S101 2.5 μM): 113.4 ± 3.3% | Normalized MFI MICB (MICB; MOLP-8, EDO-S101 1 μM): 107.8 ± 0.5% | Normalized MFI MICB (MICB; MOLP-8, EDO-S101 2.5 μM): 119.3 ± 7.7% | Normalized MFI MICB (MICB; RPMI-8226, EDO-S101 1 μM): 107.1 ± 6.6% | Normalized MFI MICB (MICB; RPMI-8226, EDO-S101 2.5 μM): 131.3 ± 9.4% | Normalized MFI ULBP2 (ULBP2; JJN3, EDO-S101 1 μM): 110.5 ± 9.5% | Normalized MFI ULBP2 (ULBP2; JJN3, EDO-S101 2.5 μM): 112.9 ± 13.4% | Normalized MFI ULBP2 (ULBP2; MM1.S, EDO-S101 1 μM): 95.8 ± 4.5% | Normalized MFI ULBP2 (ULBP2; MM1.S, EDO-S101 2.5 μM): 96.3 ± 12.3% | Normalized MFI ULBP2 (ULBP2; MOLP-8, EDO-S101 1 μM): 116.1 ± 4.6% | Normalized MFI ULBP2 (ULBP2; MOLP-8, EDO-S101 2.5 μM): 124.7 ± 13.5% | percentage of dead myeloma cells, daratumumab-mediated ADCC [1]: significantly enhanced | percentage of dead myeloma cells, daratumumab-mediated ADCC ([1]; listed as tinostamustine): higher | daratumumab mediated CDC (MOLP-8 cells): enhanced
